Measurements taken from patent US10441536B2, “Micronized colistimethane sodium pharmaceutical compositions” (Forest Laboratories Holdings Limited, priority 2013, dated 2019).

What was measured:
[1] = assay type: in vivo, patients
Procedure: In one clinical trial, the absorption of the powdered colistimethate sodium into the airways of the lungs was measured (specific airway conductance). […] This is a very high uptake, and more than would be expected from a powdered drug. […] In a second trial, patients were given a premedication dose of 200 micrograms of salbutamol. […] In an alternative medication regime, the salbutamol can be mixed into the same capsule as the colistin sulphomethate sodium.

[2] = tested on: gram negative microbial organisms; test: Synergy of activity of the mixture of components; assay type: cell-based
Source text: Colistimethate sodium is a negatively charged molecular ion with positively charged sodium counter ions. […] There are five sulphomethate groups (CH2—OS02^−). U.S. Pat. No. 5,767,068 refers to variable groups Rx and R2; Rx is identified as 6-methyloctanoyl or 6-methylheptanoyl, and R2 as sec-butyl, isobutyl or isopropyl.

[3] = in vivo; cited from earlier work
[4] = Water content (Karl-Fisher) of colistimethate sodium powder and gelatin capsules in various storage conditions; assay type: physicochemical; parameters: unit not given here; settings: n = 3
Procedure: Aliquots of colistimethate sodium encapsulated in gelatin capsules were stored in relative humidity ranging from about 20% RH to about 80% RH at ambient temperature conditions. Encapsulated colistimethate sodium was tested for moisture content and piercing performance at several time points. For example, the capsules were tested at 23° C. at 30% RH, 23° C. at 40% RH, 23° C. at 48% RH, 23° C. at 75% RH at different time points such as 1, 2, 4, and 24 hrs. Storage conditions were generated using qualified stability chambers set at the target temperature 23° C.±2° C. and the set relative humidity ±5% RH. Ambient laboratory conditions were determined to be at about 23° C.±2° C., 48% RH. Ambient conditions were verified using calibrated NIST thermo-Hygrometers. Average moisture content of colistimethate sodium as well as the moisture content of gelatin capsules was determined using Karl-Fisher determination.

CC(C)(C)NCC(O)c1ccc(O)c(CO)c1 (stereo not shown) [salbutamol]
airway conductance ([1]; premedication dose of 200 micrograms, second trial): appeared to improve airway conductance

colistin sulphomethate sodium [colistimethate sodium]
activity of the mixture of components against gram negative microbial organisms [2]: synergy of activity
absorption into the bloodstream [3]: poorly absorbed
Water Content (KF) ([4]; 23° C./30% RH, 0 hr): 5.44
Water Content (KF) ([4]; 23° C./30% RH, 1 hr): 5.28
Water Content (KF) ([4]; 23° C./30% RH, 2 hr): 5.85
Water Content (KF) ([4]; 23° C./30% RH, 4 hr): 5.94
Water Content (KF) ([4]; 23° C./30% RH, 24 hr): 6.54
Water Content (KF) ([4]; 23° C./40% RH, 0 hr): 5.44
Water Content (KF) ([4]; 23° C./40% RH, 1 hr): 5.96
Water Content (KF) ([4]; 23° C./40% RH, 2 hr): 5.81
Water Content (KF) ([4]; 23° C./40% RH, 4 hr): 6.51
Water Content (KF) ([4]; 23° C./40% RH, 9 hr): 6.50
Water Content (KF) ([4]; 23° C./40% RH, 24 hr): 9.54
Water Content (KF) ([4]; 23° C./48% RH, 0 hr): 5.44
Water Content (KF) ([4]; 23° C./48% RH, 1 hr): 5.68
Water Content (KF) ([4]; 23° C./48% RH, 2 hr): 6.39
Water Content (KF) ([4]; 23° C./48% RH, 4 hr): 6.64
Water Content (KF) ([4]; 23° C./48% RH, 24 hr): 14.49
Water Content (KF) ([4]; 23° C./75% RH, 0 hr): 5.44
Water Content (KF) ([4]; 23° C./75% RH, 1 hr): 7.04
Water Content (KF) ([4]; 23° C./75% RH, 2 hr): 6.96
Water Content (KF) ([4]; 23° C./75% RH, 4 hr): 10.74
irritation of the lungs ([1]; human, in vivo): does not cause irritation
specific airway conductance, whole body plethysmography, compared with traditional nebulised colistimethate sodium ([1]; human, in vivo): did not show any noticeable difference
